Measured values published in US6380226B1, “Salts of an anti-migraine indole derivatives” (Pfizer Inc, priority 1994, dated 2002).
Entries after “also recorded” stand apart in the source; their conditions may differ. Counter-ions that a name gives are not always drawn. Like-named read-outs stand apart in the source and are kept apart here.

Key:
Type in all cases: physicochemical
[1] = Hygroscopicity study: moisture change by weight analysis and Karl Fischer titrimetry; conditions: for colour change of sample accompanying water uptake: hygroscopicity study, 40° C./75% RH
Procedure: (§1) Hygroscopicity/Solid State Stability Studies Samples (ca 10 mg) were sieved (250 μm) and then stored at each of the following conditions of temperature (T) and relative humidity (RH) for up to 4 weeks: 30° C. at II, 75 and 90% RH and 40° C. at II, 75 and 90% RH, the required humidities being achieved using the appropriate saturated salt solution in a dessicator. Measurements of water content changes were conducted by weight analysis using a microbalance and by Karl Fischer titrimetry (KFT), and chemical and physical stability evaluation by high performance liquid chromatography (HPLC) and DSC. KFT was performed using a Mitsubishi moisturemeter and ca 10 mg of each sample.

Compression studies = conditions: for behaviour on compression (colour change, melting, punch filming): 5 tonnes for 1 minute, 13 mm punch and die set
Procedure: Samples (200 mg) were compressed using a bench IR press (Graseby Specac Model 15.011) at 5 tonnes for 1 minute using a 13 mm punch and die set, then assessed for colour change and evidence of melting. Further analysis (DSC and HPLC) was conducted after grinding of the compact using a mortar and pestle.

[2] = Polymorphic conversion by DSC
Procedure: Samples (ca 5 mg) of each form were analysed using a Perkin-Elmer 7 Series thermal analyser at a scanning rate of 20° C. per minute. For identification of the respective endotherms, shown in the representative DSC thermograms of FIGS. 3A and 3B, vide supra. DSC was used to determine both the polymorphic conversions of the β-forms of the hydrobromide and hemisulphate salts to their respective α-forms, and also the conversion of the α-form of the hydrochloride salt to its β-form which is believed to be an anhydrate-hydrate transition.

[3] = Solid state stability study: chemical and physical stability by HPLC and DSC; conditions: for solid state instability (associated with water uptake): hygroscopicity studies
Procedure: as §1, with “DSC. HPLC analyses were” for “DSC. KFT was”, “performed on” for “performed using”, “a LDC isocratic system under the following conditions: column—Novapak C18, 5μm, 15 cm; mobile phase—pH 6.0, 60:40 v/v 0.02M KH2PO4 (0.5% triethylamine): methanol; detection—UV (254 nm); flow rate—1.0 ml/min; injection volume —20 μl; sample 0.1 mg/ml in mobile phase.” for “a Mitsubishi moisturemeter and ca 10 mg of each sample.”

[4] = listed as α-form of the hydrobromide salt
[5] = listed as β-form of the hemisulphate salt
[6] = listed as α-form of the hemisulphate salt

CN1CCC[C@@H]1Cc1c[nH]c2ccc(CCS(=O)(=O)c3ccccc3)cc12 [α-HBr, 3-(N-Methyl-2(R)-pyrrolidinylmethyl)-5-(2-phenylsulphonylethly)-1H-indole hydrobromide, α-form]
weight over the course of the hygroscopicity study (in words) ([1]; 30 and 40° C., 11, 75 and 90% RH, up to 4 weeks): relatively stable weights
moisture change determined by % weight change ([1]; T/RH 30/11 (30° C., 11% RH), Week 1): −0.45%
moisture change determined by % weight change ([1]; T/RH 30/11, Week 2): −0.51%
moisture change determined by % weight change ([1]; T/RH 30/11, Week 3): +0.20%
moisture change determined by % weight change ([1]; T/RH 30/11, Week 4): +0.09%
moisture change determined by % weight change ([1]; T/RH 30/75, Week 1): +0.08%
moisture change determined by % weight change ([1]; T/RH 30/75, Week 2): +0.01%
moisture change determined by % weight change ([1]; T/RH 30/75, Week 3): +0.17%
moisture change determined by % weight change ([1]; T/RH 30/75, Week 4): +0.25%
moisture change determined by % weight change ([1]; T/RH 30/90, Week 1): +0.53%
moisture change determined by % weight change ([1]; T/RH 30/90, Week 2): +0.46%
moisture change determined by % weight change ([1]; T/RH 30/90, Week 3): +0.50%
moisture change determined by % weight change ([1]; T/RH 30/90, Week 4): +0.49%
moisture change determined by % weight change ([1]; T/RH 40/11, Week 1): −0.48%
moisture change determined by % weight change ([1]; T/RH 40/11, Week 2): +0.58%
moisture change determined by % weight change ([1]; T/RH 40/11, Week 3): −0.51%
moisture change determined by % weight change ([1]; T/RH 40/11, Week 4): −0.49%
moisture change determined by % weight change ([1]; T/RH 40/75, Week 1): +0.06%
moisture change determined by % weight change ([1]; T/RH 40/75, Week 2): +0.23%
moisture change determined by % weight change ([1]; T/RH 40/75, Week 3): 0.00%
moisture change determined by % weight change ([1]; T/RH 40/75, Week 4): +0.11%
moisture change determined by % weight change ([1]; T/RH 40/90, Week 1): +0.87%
moisture change determined by % weight change ([1]; T/RH 40/90, Week 2): +1.27%
moisture change determined by % weight change ([1]; T/RH 40/90, Week 3): +1.16%
moisture change determined by % weight change ([1]; T/RH 40/90, Week 4): +1.23%
hygroscopicity (in words) [1, 4]: lack of hygroscopicity
behaviour on compression (colour change, melting, punch filming) (Compression studies; [4]): no evidence of a change in sample appearance or punch filming
changes to the thermogram (melting point, enthalpy of fusion) after compression or grinding (Compression studies; DSC after compression or grinding): no changes
polymorphic conversion [2, 4]: No polymorphic transitions
change in DSC profile ([3]; T=40° C./RH=90% samples): No change
chemical stability by HPLC analysis ([3]; all of the conditions studied (30 and 40° C., 11, 75, 90% RH, up to 4 weeks)): confirmed its stability

CN1CCC[C@@H]1Cc1c[nH]c2ccc(CCS(=O)(=O)c3ccccc3)cc12 [β-form of the hydrochloride salt, 3-(N-methyl-2(R)-pyrrolidinylmethyl)-5-(2-phenylsulphonylethyl)-1H-indole]
hygroscopicity (in words) ([1]; T=40° C./RH=75%, weight change and KFT at week 4): non-hygroscopic
behaviour on compression (colour change, melting, punch filming) (Compression studies): melting and sticking of the disk to the punches were observed; also recorded: melts and causes sticking of the disk to the punches
solid state instability (associated with water uptake) [3]: does not display solid state instability; also recorded: no solid state instability being detected

CN1CCC[C@@H]1Cc1c[nH]c2ccc(CCS(=O)(=O)c3ccccc3)cc12 [α-form of the hydrochloride salt, 3-(N-methyl-2(R)-pyrrolidinylmethyl)-5-(2-phenylsulphonylethyl)-1H-indole]
water uptake (in words) ([1]; T 40° C., RH 75%, seven days (1 week)): a significant amount of water had been taken up; also recorded: picked up a significant amount of moisture
behaviour on compression (colour change, melting, punch filming) (Compression studies): did not melt on compaction
polymorphic conversion [2]: converts to the hydrated β-form; also recorded: transformation of the α-form to the β-form

CN1CCC[C@@H]1Cc1c[nH]c2ccc(CCS(=O)(=O)c3ccccc3)cc12 [β-form of the hydrobromide salt]
polymorphic conversion [2]: undergoes polymorphic conversion to a higher melting form

CN1CCC[C@@H]1Cc1c[nH]c2ccc(CCS(=O)(=O)c3ccccc3)cc12 [β-½H2SO4, 3-(N-methyl-2(R)-pyrrolidinylmethyl)-5-(2-phenylsulphonylethyl)-1H-indole]
moisture change determined by % weight change ([1]; T/RH 40/75, Week 1): +1.33%
moisture change determined by % weight change ([1]; T/RH 40/75, Week 2): +3.79%
moisture change determined by % weight change ([1]; T/RH 40/75, Week 3): +3.38%
moisture change determined by % weight change ([1]; T/RH 40/75, Week 4): +1.69%
colour change of sample accompanying water uptake [1, 5]: change in colour of the sample from cream to yellow
hygroscopicity (in words) ([1]; relative humidities (RH) higher than 50%): very hygroscopic
behaviour on compression (colour change, melting, punch filming) (Compression studies; [5]): undergoes a colour change on compression and causes punch-filming during tabletting; also recorded: undergoes a colour change on compression and also causes punch filming on compaction
polymorphic conversion [2, 5]: water uptake can cause polymorphic conversion to an alternative form; also recorded: polymorphic conversion to the α-form

CN1CCC[C@@H]1Cc1c[nH]c2ccc(CCS(=O)(=O)c3ccccc3)cc12 [α-½H2SO4, 3-(N-methyl-2(R)-pyrrolidinylmethyl)-5-(2-phenylsulphonylethyl)-1H-indole]
moisture change determined by % weight change ([1]; T/RH 40/75, Week 1): +6.0%
moisture change determined by % weight change ([1]; T/RH 40/75, Week 2): +4.85%
moisture change determined by % weight change ([1]; T/RH 40/75, Week 3): +5.46%
moisture change determined by % weight change ([1]; T/RH 40/75, Week 4): +4.04%
colour change of sample accompanying water uptake [1, 6]: no concomitant colour
hygroscopicity (in words) [1, 6]: extremely hygroscopic
solid state instability (associated with water uptake) [3, 6]: does not display solid state instability
